Measured values reported in US20220288148A1, “METHODS FOR RELIEVING BACK PAIN WITH TERMINALIA CHEBULA COMPOSITIONS” (Natreon, Inc., priority 2021, published 2022).

Assays:
[1] = system: subjects with hyperuricemia; conditions: cited from earlier work
low back pain = experiment: Case reports of human subjects with low back pain (Examples 2-5); format: in vivo; conditions: before AyuFlex
Procedure: Several human subjects suffering from back pain were administered an effective amount of a T. chebula composition according to the present invention (AyuFlex®, an aqueous extract of T. chebula fruit in powdered and standardized form, orally administered in a capsule containing 500 mg of the extract). […] Subject weights ranged from 54.5 kg to 72.7 kg, and daily doses ranged from 500 mg to 2000 mg per day of AyuFlex®, which may be calculated at a dose range of about 6.88 mg AyuFlex®/kg body weight of a subject to about 36.7 mg AyuFlex®/kg body weight of a subject.
Prior to administration of AyuFlex®, the subject reported a history of suffering from chronic low back pain, described by the subject as sciatic pain, as well as from patellar tendonitis, for the past ten years. The subject indicated their belief that the low back pain was due to a very active lifestyle that included lifting heavy weights. They previously attempted to relieve the chronic low back pain with numerous rounds of physical therapy and rehab-based regimens, but was only provided with temporary relief until they resumed exercise.
The subject began oral administration of 2 (two) 500 mg AyuFlex® capsules daily to treat their low back pain.
Prior to administration of AyuFlex®, the subject reported a history of back pain described by the subject as sciatic pain, beginning when they were young. They were a gymnast for many years, and as a result injured their back. They were diagnosed with small compression fractures and disk bulges in their lower back. Throughout their teen years, the subject underwent intermittent physical therapy, and also sought treatment from a chiropractor for two years. Although the subject reported some temporary relief from these treatments, their pain was not resolved.
The subject further reported that, due to lack of exercise over the years, their sciatic pain became extremely severe. […] Within a month of the onset of these severe symptoms, the subject described having only one or two days where […] was pain-free. […] reported relying heavily on acetaminophen (Tylenol®) and ibuprofen (Advil®) to ease their pain, as they were often not able to sleep due to the sharp sciatic pain. […] Along with the sciatic pain, for a few months before beginning administration of Ayuflex®, the subject reported experiencing stiffness in […] lower back as well. […] reported needing to bend their back to walk for a few minutes after they would stand.
The subject began oral administration of Ayuflex®, taking a 500 mg capsule twice daily for about 2 months, and then recently chose to increase the dosage to 1000 mg (2 capsules) twice daily. […]

[2] = system: collagen-induced arthritis; conditions: mice with collagen-induced arthritis; cited from earlier work

Row | Structure (SMILES) | subject-reported pain relief by prior analgesics (low back pain; Example 3 subject) | subject-reported pain relief by prior analgesics (low back pain; Example 5 subject) | other results
1 | Cc1nc(-c2ccc(OCC(C)C)c(C#N)c2)sc1C(=O)O [febuxostat] |  |  | reduction in mean serum uric acid levels compared to baseline ([1]; as early as 4 weeks, T. bellerica 500 and 250 mg BID, febuxostat 40 mg, T. chebula 500 mg BID): Significant reduction; serum uric acid levels, baseline ([1]; baseline, T. bellerica 500 mg BID, febuxostat 40 mg once daily, in mg/dL (unit assumed)): 8.53±0.97; serum uric acid levels at the end of 24 weeks ([1]; end of 24 weeks, T. bellerica 500 mg BID, febuxostat 40 mg once daily, in mg/dL (unit assumed)): 4.28±0.67
2 | CC(=O)Nc1ccc(O)cc1 [acetaminophen] | only relieved their pain for a few hours | only relieved the pain for a few hours | 
3 | CC(C)Cc1ccc(C(C)C(=O)O)cc1 (centres unmarked) [ibuprofen] | only relieved their pain for a few hours | only relieved the pain for a few hours | 
4 | O=C(O)C[C@@H]1C(=O)O[C@H]2[C@H](OC(=O)c3cc(O)c(O)c(O)c3)[C@@H](OC(=O)c3cc(O)c(O)c4c3[C@H]1[C@H](O)C(=O)O4)[C@H](OC(=O)c1cc(O)c(O)c(O)c1)O[C@@H]2COC(=O)c1cc(O)c(O)c(O)c1 [chebulinic acid] |  |  | conclusion on anti-VEGF antiangiogenic action for inflammatory arthritis [2]: safe and potent anti-VEGF antiangiogenic agent
